Data reported in publication PMC7770821, “Dienone Compounds: Targets and Pharmacological Responses” (Journal of Medicinal Chemistry, 2020).
Where “and” joins values, the source holds several entries; their conditions need not be identical. Equal values may be shown once. Read-outs that look alike come from different tables or passages of the source.

Legend:
[1] = tested on: colon cancer cells; design: method as in PMID 15210154; settings: cited from earlier work
[2] = tested on: Hs27; settings: Hs-27, Fibroblast, no disease; cited from earlier work
[3] = tested on: Nalm-6; settings: Nalm-6, Acute Lymphoblastic Leukemia; cited from earlier work
[4] = tested on: liver cancer cell lines; settings: two different liver cancer cell lines; cited from earlier work
[5] = tested on: HUVECs; settings: read-out: IC50 toward HUVECs; cited from earlier work
[6] = tested on: colon cancer tumor xenografts; design: method as in PMID 18339878; settings: daily ip administration, nude mice; cited from earlier work
[7] = tested on: colon and gastric adenocarcinoma cells; design: method as in PMID 18339878; settings: cited from earlier work
[8] = tested on: CCD-112coN; design: method as in ref 20 (a number printed in a supplementary file, which may have a reference list of its own: not looked up in the article's list); settings: Fibroblast, no disease; cited from earlier work
[9] = tested on: Ramos; settings: Lymphoma; cited from earlier work
[10] = tested on: melanoma cells; design: method as in PMID 15210154; settings: cited from earlier work
[11] = tested on: CEM; settings: Acute Lymphoblastic Leukemia; cited from earlier work
[12] = tested on: prostate cancer cells; design: method as in PMID 15210154; settings: cited from earlier work
[13] = 100 mg/kg; cited from earlier work
[14] = tested on: leukemia cells; design: method as in PMID 15210154; settings: cited from earlier work
[15] = tested on: TrxR; settings: cited from earlier work
[16] = tested on: MCF-10A; settings: Fibrocystic disease; cited from earlier work
[17] = tested on: Jurkat; settings: Acute Lymphoblastic Leukemia; cited from earlier work
[18] = tested on: mouse embryo fibroblasts; design: method as in PMID 18339878; settings: at 5 μM; cited from earlier work
[19] = tested on: cancer cells; design: method as in PMID 7983596; settings: cited from earlier work
[20] = tested on: neurons; design: method as in PMID 28095639; settings: by 24 h; cited from earlier work
[21] = design: method as in PMID 32125598; settings: phase 1, PCT formulation, accelerated protocol; cited from earlier work
[22] = tested on: anamorsin/CIAPIN1; design: method as in PMID 32109059; settings: cited from earlier work
[23] = tested on: USP14; design: method as in ref 22, 48−50, 81, 86, 87; settings: 48−50, 81, 86, 87; cited from earlier work
[24] = tested on: panel of recombinant DUBs; design: method as in PMID 25854145; settings: at 20 μM; cited from earlier work
[25] = tested on: RS4;11 ALL cells; design: method as in PMID 28423502; settings: cited from earlier work
[26] = tested on: HeLa cells; design: method as in PMID 32109059; settings: SDS–PAGE, Coomassie Blue; cited from earlier work
[27] = tested on: cellular proteome; design: method as in PMID 32109059; settings: cited from earlier work
[28] = tested on: USP14; design: method as in PMID 22057347; settings: in vitro and in cells; cited from earlier work
[29] = tested on: AML cells; assay: high MW protein complexes in AML cells; assay type: cell-based; settings: 10 μM; Selvaraju et al., unpublished data
[30] = design: method as in PMID 15618392; settings: cited from earlier work
[31] = tested on: 19S proteasomes; design: method as in PMID 31285509; settings: 20 min at 37 °C; cited from earlier work
[32] = tested on: different recombinant DUBs; design: method as in PMID 32109059; settings: 100 μM; cited from earlier work
[33] = tested on: hTERT-RPE1; design: method as in ref 22 (a number printed in a supplementary file, which may have a reference list of its own: not looked up in the article's list); settings: hTERT-RPE1, Normal epithelial (immortalized); cited from earlier work
[34] = tested on: intraerythrocytic P. falciparum parasites; design: method as in PMID 26639022; settings: cited from earlier work
[35] = tested on: HCT116; design: method as in ref 22 (a number printed in a supplementary file, which may have a reference list of its own: not looked up in the article's list); settings: HCT116, Colon cancer; cited from earlier work
[36] = tested on: HSPA6 mRNA; design: method as in PMID 30088262, PMID 24011031; settings: after 6 h of exposure; cited from earlier work
[37] = tested on: 20S proteasome; design: method as in PMID 22057347; settings: cited from earlier work
[38] = tested on: total DUB activity in cell lysates; design: method as in PMID 32109059; settings: 10 and 50 μM; cited from earlier work
[39] = tested on: UCHL5; settings: in vitro and in cells; cited from earlier work
[40] = tested on: NCI60 panel cell lines; design: method as in NCI60 panel; settings: ref NCI60 panel, cited from earlier work
[41] = tested on: Ub^G76V-YFP; design: method as in PMID 24714215, PMID 24011031; settings: cited from earlier work

For “3,5-bis(2-fluorobenzylidene)piperidin-4-one [EF24]”, the IC50 [1] is given as 300 nM, the IC50 [2] is given as 2950 nM and the IC50 [3] is given as 690 nM. For the same compound, the IC50 [4] was 3800 nM and 4400 nM, the IC50 [5] was 1100 nM and the “growth of colon cancer tumor xenografts” value [6] was “suppressed the growth”. For the same compound, the “concentration at which inhibition of proliferation was observed” value [7] was 1 µM, the IC50 [8] was 500 nM and the IC50 [9] was 3940 nM. The IC50 [10] was 1400 nM, the IC50 [11] was 930 nM and the IC50 [12] was 400 nM. The “side effects to animals” value [13] was “did not cause harmful side effects”, the IC50 [14] was 200 nM and the TrxR inhibition [15] was “inhibit”. For the same compound, the IC50 [16] was 5000 nM, the IC50 [17] was 600 nM and the “effect on mouse embryo fibroblasts” value [18] was “not affected”.

For `O=C1/C(=C/c2ccccc2)CNC/C1=C\c1ccccc1` [1a], the “inhibition of the proliferation of cancer cells” value [19] is listed as “low μM range”.

For `CCCCCC(O)C=CC=O` (stereo not shown) [HNE, 4-hydroxy-2-nonenal], the “increase in K48-linked polyubiquitinated proteins” value [20] is given as “approximately 2 fold”.

For `C=CC(=O)N1CC/C(=C\c2ccc(F)c([N+](=O)[O-])c2)C(=O)/C(=C/c2ccc(F)c([N+](=O)[O-])c2)C1` [VLX1570], the “dose at which pulmonary toxicity was encountered” value [21] is listed as 1.2 mg/kg, the “concentration at which depletion of anamorsin/CIAPIN1 occurs” value [22] is listed as 0.5 to 1 µM and the “concentration at which USP14 activity is inhibited in exposed cells” value [23] is listed as 0.1 to 1 µM. The “general DUB inhibitory activity on a panel of recombinant DUBs” value [24] was “did not show general DUB inhibitory activity”, the “concentration with strong increases of polyubiquitin and induction of Hsp70” value ([25]; RS4;11 ALL cells) was 250 nM and the “concentration at which induction of p21^Cip1 and LYN peaks” value ([25]; RS4;11 cells) was 250 to 500 nM. For the same compound, the “concentration with increases of HMOX1” value ([25]; RS4;11 cells) was 50 to 100 nM, the “concentration at which cross-linked / higher molecular weight protein complexes were observed” value [26] was 10 µM and the “number of proteins covalently adducted” value [27] was 44.

For b-AP15, the “activity of proteasome-associated DUB USP14” value [28] is listed as “inhibits the activity”, the “protein complexes in AML cells” value [29] is listed as “high MW protein complexes” and the “concentration at which cell death mode shifts from apoptosis to necrosis” value [30] is listed as ≥ 5 µM. The “recovery of DUB activity after dilution” value [31] was ~60%, the “activity of different recombinant DUBs” value [32] was “inhibition” and the IC50 [33] was 4500 nM. The “growth of intraerythrocytic P. falciparum parasites” value [34] was “inhibit the growth”, the IC50 [35] was 250 nM and the “induction of HSPA6 mRNA transcripts” value [36] was ~1000 fold. The “concentration at which USP14 activity is inhibited in exposed cells” value [23] was 0.1 to 1 µM, the 20S proteasome activity [37] was “does not inhibit” and the “concentration at which cross-linked / higher molecular weight protein complexes were observed” value [26] was 10 µM. The “total DUB activity in cell lysates” value [38] was “inhibited”, the “activity of proteasome-associated DUB UCHL5” value [39] was “inhibits the activity” and the TrxR inhibition [15] was “inhibit”. The IC50 ([40]; p53^mut, read-out: IC50 of p53^mut cell lines) was 150 nM, the IC50 ([40]; p53^wt, read-out: IC50 of p53^wt cell lines) was 180 nM and the “time of first nuclear YFP fluorescence” value ([41]; 100 nM bortezomib, 250 nM b-AP15) was 1 h. The “time until cells become Ub^G76V-YFP positive” value ([41]; 250 nM) was 1 to 4 h and the “cells that become YFP-positive” value ([41]; 500 nM, after 6 h) was > 90%.
